Results: patent publication US9924716B2, “Molecules having pesticidal utility, and intermediates, compositions, and processes, related thereto” (Dow AgroSciences LLC, priority 2016, dated 2018)

Legend:
Type in all cases: in vivo
[1] = test system: Green Peach Aphid (Myzus persicae, MYZUPE); assay: Bioassay on Green Peach Aphid (GPA), foliar spray on cabbage seedlings; conditions: Table ABC Biological Results
Procedure: Certain molecules disclosed in this document were tested against GPA using procedures described in the following example. In the reporting of the results, the “GPA & YFM Rating Table” was used (See Table Section). Cabbage seedlings grown in 3-inch pots, with 2-3 small (3-5 cm) true leaves, were used as test substrate. The seedlings were infested with 20-50 GPA (wingless adult and nymph stages) one day prior to chemical application. Four pots with individual seedlings were used for each treatment. Test molecules (2 mg) were dissolved in 2 mL of acetone/methanol (1:1) solvent, forming stock solutions of 1000 ppm test molecule. The stock solutions were diluted 5× with 0.025% Tween 20 in water to obtain the solution at 200 ppm test molecule. A hand-held aspirator-type sprayer was used for spraying a solution to both sides of […] leaves until runoff. Reference plants (solvent check) were sprayed with the diluent only containing 20% by volume of acetone/methanol (1:1) solvent. Treated plants were held in a holding room for three days at approximately 25° C. and ambient relative humidity (RH) prior to grading. […] Percent Control was measured by using Abbott's correction formula (W. S. Abbott, “A Method of Computing the Effectiveness of an Insecticide” J. Econ. Entomol. 18 (1925), pp. 265-267) as follows. […]

[2] = test system: Cabbage Looper (Trichoplusia ni, TRIPNI) second instar larvae; assay: Bioassay on Cabbage Looper (CL), 128-well diet tray assay; conditions: Cabbage Looper, Table ABC Biological Results, read-out: CL rating
Procedure: (§1) Certain molecules disclosed in this document were tested against BAW, CEW, and CL using procedures described in the following examples. In the reporting of the results, the “BAW, CEW, & CL Rating Table” was used (See Table Section).
Bioassays on CL were conducted using a 128-well diet tray assay. one to five second instar CL larvae were placed in each well (3 mL) of the diet tray that had been previously filled with 1 mL of artificial diet to which 50 μg/cm^2 of the test molecule (dissolved in 50 μL of 90:10 acetone-water mixture) had been applied (to each of eight wells) and then allowed to dry. Trays were covered with a clear self-adhesive cover and held at 25° C., 14:10 light-dark for five to seven days. Percent mortality was recorded for the larvae in each well; activity in the eight wells was then averaged. The results are indicated in the table entitled “Table ABC: Biological Results” (See Table Section).
(§2) Bioassays on BAW and CL were conducted according to the procedures outlined in Example A: Bioassays on Beet Armyworm (“BAW”) and Cabbage Looper (“CL”) using the indicated concentrations.

[3] = test system: Yellow Fever Mosquito (Aedes aegypti, AEDSAE) larvae; assay: Bioassay on Yellow Fever Mosquito (YFM), 96-well plate larval assay; conditions: Table ABC Biological Results
Procedure: Certain molecules disclosed in this document were tested against YFM using procedures described in the following paragraph. In the reporting of the results, the “GPA & YFM Rating Table” was used (See Table Section).
Master plates containing 400 μg of a molecule dissolved in 100 μL of dimethyl sulfoxide (DMSO) (equivalent to a 4000 ppm solution) are used. A master plate of assembled molecules contains 15 μL per well. To this plate, 135 μL of a 90:10 water:acetone mixture is added to each well. A robot (Biomek® NXP Laboratory Automation Workstation) is programmed to dispense 15 μL aspirations from the master plate into an empty 96-well shallow plate (“daughter” plate). There are 6 reps (“daughter” plates) created per master. The created daughter plates are then immediately infested with YFM larvae.
The day before plates are to be treated, mosquito eggs are placed in Millipore water containing liver powder to begin hatching (4 g. into 400 mL). After the daughter plates are created using the robot, they are infested with 220 μL of the liver powder/larval mosquito mixture (about 1 day-old larvae). After plates are infested with mosquito larvae, a non-evaporative lid is used to cover the plate to reduce drying. Plates are held at room temperature for 3 days prior to grading. After 3 days, each well is observed and scored based on mortality. The results are indicated in the table entitled “Table ABC: Biological Results” (See Table Section).

[4] = test system: Beet Armyworm (Spodoptera exigua, LAPHEG) second instar larvae; assay: Bioassay on Beet Armyworm (BAW), 128-well diet tray assay; conditions: Beet Armyworm, Table ABC Biological Results, read-out: BAW rating
Procedure: as §1
Bioassays on BAW were conducted using a 128-well diet tray assay. one to five second instar BAW larvae were placed in each well (3 mL) of the diet tray that had been previously filled with 1 mL of artificial diet to which 50 μg/cm^2 of the test molecule (dissolved in 50 μL of 90:10 acetone-water mixture) had been applied (to each of eight wells) and then allowed to dry. Trays were covered with a clear self-adhesive cover and held at 25° C., 14:10 light-dark for five to seven days. Percent mortality was recorded for the larvae in each well; activity in the eight wells was then averaged. The results are indicated in the table entitled “Table ABC: Biological Results” (See Table Section).
as §2

Q: `C[C@H](NC(=O)CCC(F)(F)F)NC(=O)c1ccc(/C(F)=C/C(c2cc(Cl)c(F)c(Cl)c2)C(F)(F)F)cc1C(F)(F)F` (stereo partly drawn) [F17, 4-((Z)-3-(3,5-Dichloro-4-fluorophenyl)-1,4,4,4-tetrafluorobut-1-en-1-yl)-N—((R)-1-(4,4,4-trifluorobutanamido)ethyl)-2-(trifluoromethyl)benzamide] was tested. Which GPA rating [1] did it give?
A: The GPA rating was “B (More than 0-Less than 80)”.

Q: What about the pest or weed control at 50 µg/cm2 [2] of the same compound?
A: Its pest or weed control at 50 µg/cm2 is 50 to 100%.

Q: What about the YFM rating [3] of the same compound?
A: Its YFM rating is “A (80-100)”.

Q: What about the pest or weed control at 50 µg/cm2 [4] of the same compound?
A: The pest or weed control at 50 µg/cm2 was 50 to 100%.

Q: How did the pest or weed control at 50 µg/cm2 [2] turn out when `C[C@H](NC(=O)CC(F)(F)F)NC(=O)c1ccc(/C(F)=C/C(c2cc(Br)cc(Br)c2)C(F)(F)F)cc1C(F)(F)F` (stereo partly drawn) [F22, 4-((Z)-3-(3,5-Dibromophenyl)-1,4,4,4-tetrafluorobut-1-en-1-yl)-2-(trifluoromethyl)-N—((R)-1-(3,3,3-trifluoropropanamido)ethyl)benzamide] was run?
A: Its pest or weed control at 50 µg/cm2 is 50 to 100%.

Q: And the YFM rating [3]?
A: Its YFM rating is “A (80-100)”.

Q: What about the pest or weed control at 50 µg/cm2 [4] of the same compound?
A: Its pest or weed control at 50 µg/cm2 is 50 to 100%.

Q: What does the source list for `C[C@H](NC(=O)CCC(F)(F)F)NC(=O)c1ccc(/C(F)=C/C(c2cc(Br)cc(Br)c2)C(F)(F)F)cc1C(F)(F)F` (stereo partly drawn) [F23, 4-((Z)-3-(3,5-Dibromophenyl)-1,4,4,4-tetrafluorobut-1-en-1-yl)-N—((R)-1-(4,4,4-trifluorobutanamido)ethyl)-2-(trifluoromethyl)benzamide]?
A: pest or weed control at 50 µg/cm2 [2]: 50 to 100%; YFM rating [3]: A (80-100); pest or weed control at 50 µg/cm2 [4]: 50 to 100%

Q: With `Cc1cc(C(/C=C(\F)c2ccc(C(=O)N[C@H](C)NC(=O)CC(F)(F)F)c(C(F)(F)F)c2)C(F)(F)F)cc(C)c1Cl` (stereo partly drawn) [F24, 4-((Z)-3-(4-Chloro-3,5-dimethylphenyl)-1,4,4,4-tetrafluorobut-1-en-1-yl)-2-(trifluoromethyl)-N—((R)-1-(3,3,3-trifluoropropanamido)ethyl)benzamide] as the compound, how does the pest or weed control at 50 µg/cm2 [2] read?
A: The pest or weed control at 50 µg/cm2 was 50 to 100%.

Q: And the YFM rating [3]?
A: Its YFM rating is “A (80-100)”.

Q: What about the pest or weed control at 50 µg/cm2 [4] of the same compound?
A: Its pest or weed control at 50 µg/cm2 is 50 to 100%.

Q: What does the source list for `Cc1cc(C(/C=C(\F)c2ccc(C(=O)N[C@H](C)NC(=O)CCC(F)(F)F)c(C(F)(F)F)c2)C(F)(F)F)cc(C)c1Cl` (stereo partly drawn) [F25, 4-((Z)-3-(4-Chloro-3,5-dimethylphenyl)-1,4,4,4-tetrafluorobut-1-en-1-yl)-N—((R)-1-(4,4,4-trifluorobutanamido)ethyl)-2-(trifluoromethyl)benzamide]?
A: pest or weed control at 50 µg/cm2 [2]: 50 to 100%; YFM rating [3]: A (80-100); pest or weed control at 50 µg/cm2 [4]: 50 to 100%

Q: For `C[C@H](NC(=O)CC(F)(F)F)NC(=O)c1ccc(/C(F)=C/C(c2cc(Br)c(Cl)c(Br)c2)C(F)(F)F)cc1C(F)(F)F` (stereo partly drawn) [F26, 4-((Z)-3-(3,5-Dibromo-4-chlorophenyl)-1,4,4,4-tetrafluorobut-1-en-1-yl)-2-(trifluoromethyl)-N—((R)-1-(3,3,3-trifluoropropanamido)ethyl)benzamide], which pest or weed control at 50 µg/cm2 [2] is on record?
A: Its pest or weed control at 50 µg/cm2 is 50 to 100%.

Q: What about the YFM rating [3] of the same compound?
A: Its YFM rating is “A (80-100)”.

Q: And the pest or weed control at 50 µg/cm2 [4]?
A: Its pest or weed control at 50 µg/cm2 is 50 to 100%.

Q: What does the source list for `C[C@H](NC(=O)CCC(F)(F)F)NC(=O)c1ccc(/C(F)=C/C(c2cc(Br)c(Cl)c(Br)c2)C(F)(F)F)cc1C(F)(F)F` (stereo partly drawn) [F30, 4-((Z)-3-(3,5-Dibromo-4-chlorophenyl)-1,4,4,4-tetrafluorobut-1-en-1-yl)-N—((R)-1-(4,4,4-trifluorobutanamido)ethyl)-2-(trifluoromethyl)benzamide]?
A: pest or weed control at 50 µg/cm2 [2]: 50 to 100%; YFM rating [3]: A (80-100); pest or weed control at 50 µg/cm2 [4]: 50 to 100%

Q: Which pest or weed control at 50 µg/cm2 [2] does the source give for `C[C@H](NC(=O)CC(F)(F)F)NC(=O)c1ccc(/C(F)=C/C(c2ccc(Br)c(Br)c2)C(F)(F)F)cc1C(F)(F)F` (stereo partly drawn) [F32, 4-((Z)-3-(3,4-Dibromophenyl)-1,4,4,4-tetrafluorobut-1-en-1-yl)-2-(trifluoromethyl)-N—((R)-1-(3,3,3-trifluoropropanamido)ethyl)benzamide] here?
A: Its pest or weed control at 50 µg/cm2 is 50 to 100%.

Q: What about the YFM rating [3] of the same compound?
A: Its YFM rating is “A (80-100)”.

Q: What about the pest or weed control at 50 µg/cm2 [4] of the same compound?
A: Its pest or weed control at 50 µg/cm2 is 50 to 100%.

Q: How did the pest or weed control at 50 µg/cm2 [2] turn out when `C[C@H](NC(=O)CC(F)(F)F)NC(=O)c1ccc(/C(F)=C/C(c2cc(Cl)cc(Br)c2)C(F)(F)F)cc1C(F)(F)F` (stereo partly drawn) [F36, 4-((Z)-3-(3-Bromo-5-chlorophenyl)-1,4,4,4-tetrafluorobut-1-en-1-yl)-2-(trifluoromethyl)-N—((R)-1-(3,3,3-trifluoropropanamido)ethyl)benzamide] was run?
A: The pest or weed control at 50 µg/cm2 was 50 to 100%.

Q: And the YFM rating [3]?
A: Its YFM rating is “A (80-100)”.

Q: And the pest or weed control at 50 µg/cm2 [4]?
A: The pest or weed control at 50 µg/cm2 was 50 to 100%.

Q: What does the source list for `C[C@H](NC(=O)CCC#N)NC(=O)c1ccc(/C(F)=C/C(c2cc(Cl)c(Cl)c(Cl)c2)C(F)(F)F)cc1C(F)(F)F` (stereo partly drawn) [F41, N—((R)-1-(3-Cyanopropanamido)ethyl)-4-((Z)-1,4,4,4-tetrafluoro-3-(3,4,5-trichlorophenyl)but-1-en-1-yl)-2-(trifluoromethyl)benzamide]?
A: pest or weed control at 50 µg/cm2 [2]: 50 to 100%; YFM rating [3]: A (80-100); pest or weed control at 50 µg/cm2 [4]: 50 to 100%

Q: `C[C@H](NC(=O)CC(F)(F)F)NC(=O)c1ccc(/C(F)=C/C(c2cc(Cl)c(Cl)c(Cl)c2)C(F)(F)F)c2ccccc12` (stereo partly drawn) [PF1, 4-((Z)-1,4,4,4-Tetrafluoro-3-(3,4,5-trichlorophenyl)but-1-en-1-yl)-N—((R)-1-(3,3,3-trifluoropropanamido)ethyl)-1-naphthamide] was tested. Which pest or weed control at 50 µg/cm2 [2] did it give?
A: The pest or weed control at 50 µg/cm2 was 50 to 100%.

Q: And the YFM rating [3]?
A: Its YFM rating is “B (More than 0-Less than 80)”.

Q: And the pest or weed control at 50 µg/cm2 [4]?
A: The pest or weed control at 50 µg/cm2 was 50 to 100%.

Q: What does the source list for `C[C@H](NC(=O)CC(F)(F)F)NC(=O)c1ccc(/C(F)=C/C(c2ccc(Cl)c(F)c2)C(F)(F)F)cc1C(F)(F)F` (stereo partly drawn) [PF2, 4-((Z)-3-(4-Chloro-3-fluorophenyl)-1,4,4,4-tetrafluorobut-1-en-1-yl)-2-(trifluoromethyl)-N—((R)-1-(3,3,3-trifluoropropanamido)ethyl)benzamide]?
A: pest or weed control at 50 µg/cm2 [2]: 50 to 100%; YFM rating [3]: A (80-100); pest or weed control at 50 µg/cm2 [4]: 50 to 100%

Q: `C[C@H](NC(=O)CCC(F)(F)F)NC(=O)c1ccc(/C(F)=C/C(c2ccc(F)c(Cl)c2)C(F)(F)F)cc1C(F)(F)F` (stereo partly drawn) [PF3, 4-((Z)-3-(3-Chloro-4-fluorophenyl)-1,4,4,4-tetrafluorobut-1-en-1-yl)-N—((R)-1-(4,4,4-trifluorobutanamido)ethyl)-2-(trifluoromethyl)benzamide] was tested. Which pest or weed control at 50 µg/cm2 [2] did it give?
A: The pest or weed control at 50 µg/cm2 was 50 to 100%.

Q: And the YFM rating [3]?
A: The YFM rating was “B (More than 0-Less than 80)”.

Q: What about the pest or weed control at 50 µg/cm2 [4] of the same compound?
A: Its pest or weed control at 50 µg/cm2 is 50 to 100%.

Q: Which pest or weed control at 50 µg/cm2 [2] does the source give for `Cc1cc(C(/C=C(\F)c2ccc(C(=O)N[C@H](C)NC(=O)CC(F)(F)F)c(C(F)(F)F)c2)C(F)(F)F)cc(Cl)c1Cl` (stereo partly drawn) [PF4, 4-((Z)-3-(3,4-Dichloro-5-methylphenyl)-1,4,4,4-tetrafluorobut-1-en-1-yl)-2-(trifluoromethyl)-N—((R)-1-(3,3,3-trifluoropropanamido)ethyl)benzamide] here?
A: The pest or weed control at 50 µg/cm2 was 50 to 100%.

Q: And the YFM rating [3]?
A: The YFM rating was “B (More than 0-Less than 80)”.

Q: What about the pest or weed control at 50 µg/cm2 [4] of the same compound?
A: Its pest or weed control at 50 µg/cm2 is 50 to 100%.
